The values that follow are results of earlier work, collected in patent US20230332232A1, “COMPOSITIONS AND METHODS FOR DIAGNOSING AND TREATING A DYSTONIA” (Duke University, priority 2020, published 2023).

For series [1], the system named is DYT1 patient-derived fibroblasts. As to conditions: cited from earlier work.
The next series relates to ΔE Torsin1a. The conditions noted are these: ΔE Torsin1a abnormal punctate pattern; cited from earlier work.

On to `O=C(O)CCCc1ccccc1` [PBA, phenylbutyric acid], for which the “indicators of UPR activation” value in series [1] is “reduces indicators of UPR activation”. In addition, the punctate pathology entry in the series with ΔE Torsin1a is recorded as “significantly reduced punctate pathology”.
